From patent publication US8377943B2, “2,4-diaminopyrimidine derivates as PTK2-inhibitors for the treatment of abnormal cell growth” (Boehringer Ingelheim International GmbH, priority 2008, dated 2013)

Columns and labels:
[1] = molecular target: T1, PTK2-phosphorylation at tyrosine 397 (pY397) (Homo sapiens, UniProt Q05397); assay: Phospho-PTK2 (pY397) Assay in PC-3 cells; assay type: cell-based; details: PC-3 prostate carcinoma cells, 2 h incubation; read-out: PC3pPTK2 Y397 EC50
T1 construct: endogenous in cells; host or cells: PC-3 (ATCC CRL-1435)
In short: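 PC-3 cells (2×10^4/well, F12K + 10% FCS) exposed to compound (about 0.8 nM–50 μM, 1% DMSO final) for 2 h at 37 °C. Then formaldehyde-fixed and immunostained with anti-pY397 PTK2 (total PTK2 control) and an HRP secondary. EC50 from sigmoidal fit with variable Hill slope.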

PTK2 = molecular target: T2, PTK2 (Homo sapiens, UniProt Q05397); assay: PTK2 Enzyme Test (DELFIA assay, poly-Glu-Tyr substrate); assay type: biochemical; details: active PTK2 enzyme, 50 μM ATP in ATP Mix, 1 h pre-incubation
T2 construct: purchased Invitrogen PV3832
In short: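 Active PTK2 (0.01 μg/well) pre-incubated 1 h at RT with compound, then reacted 1 h with 50 μM ATP (in ATP mix) and poly(Glu,Tyr) 4:1 substrate, 2% DMSO final, pH 7.5. Biotinylated product captured on streptavidin, detected by Eu-PY20 time-resolved fluorescence; IC50 by sigmoidal fit, variable Hill slope.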

T2 sequence (Q05397 whole entry): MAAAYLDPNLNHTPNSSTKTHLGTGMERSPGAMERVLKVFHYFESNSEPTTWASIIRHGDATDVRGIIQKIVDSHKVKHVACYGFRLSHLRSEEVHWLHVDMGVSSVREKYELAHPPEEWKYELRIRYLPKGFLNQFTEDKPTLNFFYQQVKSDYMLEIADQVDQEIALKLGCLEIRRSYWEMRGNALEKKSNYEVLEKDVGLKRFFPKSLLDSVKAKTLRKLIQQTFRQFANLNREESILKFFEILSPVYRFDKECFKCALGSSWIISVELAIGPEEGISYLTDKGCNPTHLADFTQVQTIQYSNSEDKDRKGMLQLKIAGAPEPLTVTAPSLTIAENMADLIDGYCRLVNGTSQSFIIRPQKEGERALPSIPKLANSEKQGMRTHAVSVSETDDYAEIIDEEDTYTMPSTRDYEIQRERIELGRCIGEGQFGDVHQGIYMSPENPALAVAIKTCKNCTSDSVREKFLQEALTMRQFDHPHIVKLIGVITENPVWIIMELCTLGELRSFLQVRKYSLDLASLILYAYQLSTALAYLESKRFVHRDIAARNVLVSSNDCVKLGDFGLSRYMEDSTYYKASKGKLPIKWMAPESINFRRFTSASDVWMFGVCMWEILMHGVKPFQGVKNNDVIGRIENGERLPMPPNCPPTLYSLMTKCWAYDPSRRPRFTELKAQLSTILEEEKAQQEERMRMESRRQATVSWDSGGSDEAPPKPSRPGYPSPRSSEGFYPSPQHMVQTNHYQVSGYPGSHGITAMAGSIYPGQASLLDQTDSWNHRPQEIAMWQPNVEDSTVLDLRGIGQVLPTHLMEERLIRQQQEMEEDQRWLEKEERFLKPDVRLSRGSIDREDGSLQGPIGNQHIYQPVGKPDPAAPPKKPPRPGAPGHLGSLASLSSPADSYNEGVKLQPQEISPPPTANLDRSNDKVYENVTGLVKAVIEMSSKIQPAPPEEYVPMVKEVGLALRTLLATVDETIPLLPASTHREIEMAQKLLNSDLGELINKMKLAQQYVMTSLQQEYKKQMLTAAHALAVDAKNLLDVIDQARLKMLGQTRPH
T1 sequence (Q05397 whole entry): as above

EC50 [1] [nM]	IC50 (PTK2) [nM]	SMILES
0.75	3	COc1cc(CNC2CC2)ccc1Nc1ncc(C(F)(F)F)c(NCc2ccc(C)cc2N(C)S(C)(=O)=O)n1 [Example 72]
0.56	11	COc1cc(C(=O)NC2CCN(c3ccccc3)CC2)ccc1Nc1ncc(C(F)(F)F)c(NCc2ccc(C)cc2N(C)S(C)(=O)=O)n1 [Example 55]
0.56	2	COc1cc(CN2CCCC2)ccc1Nc1ncc(C(F)(F)F)c(NCc2ccc(C)cc2N(C)S(C)(=O)=O)n1 [Example 56]
0.32	2	COc1cc(C(=O)N[C@@H]2CCN(C)C2)c(F)cc1Nc1ncc(C(F)(F)F)c(NCc2ccc(C)cc2N(C)S(C)(=O)=O)n1 [Example 36]
0.29	4	COc1cc(C(=O)NC2CCN(CC3CC3)CC2)ccc1Nc1ncc(C(F)(F)F)c(NCc2ccc(C)cc2N(C)S(C)(=O)=O)n1 [Example 30]
2	2	CC(=O)Nc1ccc(Nc2ncc(C(F)(F)F)c(NCc3ccc(C)cc3N(C)S(C)(=O)=O)n2)cc1Cl [Example 104]
0.3	2	COc1cc(N2CCN(CC(=O)N(C)C)CC2)ccc1Nc1ncc(C(F)(F)F)c(NCc2ccc(C)cc2N(C)S(C)(=O)=O)n1 [Example 33]
1	0.98	Cc1ccc(CNc2nc(Nc3ccc(C(=O)NC4CCN(C)CC4)cc3C)ncc2C(F)(F)F)c(N(C)S(C)(=O)=O)c1 [Example 80]
0.22	3	COc1cc(C(=O)N[C@H]2CCN(C)C[C@H]2F)c(F)cc1Nc1ncc(C(F)(F)F)c(NCc2ccc(C)cc2N(C)S(C)(=O)=O)n1 [Example 22]
2	3	COc1cc(C(=O)NC2CC(N3CCN(CC4CC4)CC3)C2)ccc1Nc1ncc(C(F)(F)F)c(NCc2ccc(C)cc2N(C)S(C)(=O)=O)n1 (stereo not shown) [Example 97]
0.74	3	COc1cc(C(=O)NC2CC(N3CCOCC3)C2)ccc1Nc1ncc(C(F)(F)F)c(NCc2ccc(C)cc2N(C)S(C)(=O)=O)n1 (stereo not shown) [Example 71]
0.77	1	COc1cc(C(=O)NC2CCN(C)CC2)ccc1Nc1ncc(C(F)(F)F)c(NCc2ccc(C)cc2N(C)S(C)(=O)=O)n1 [Example 73, 4-{4-[2-(methanesulphonyl-methyl-amino)-4-methyl-benzylamino]-5-trifluoromethyl-pyrimidin-2-ylamino}-3-methoxy-N-(1-methyl-piperidin-4-yl)-benzamide]
0.18	3	COc1cc(C(=O)NC2CCN(C(C)C)CC2)ccc1Nc1ncc(C(F)(F)F)c(NCc2ccc(C)cc2N(C)S(C)(=O)=O)n1 [Example 15]
2	2	COc1cc(C(=O)N(C)C2CCN(C)CC2)ccc1Nc1ncc(C(F)(F)F)c(NCc2ccc(C)cc2N(C)S(C)(=O)=O)n1 [Example 108]
3	1	COc1cc(C(=O)NC2CCN(C)CC2)ccc1Nc1ncc(C(F)(F)F)c(NCc2ccc(Cl)cc2N(C)S(C)(=O)=O)n1 [Example 111]
0.14	2	COc1cc(C(=O)N[C@@H]2CCCN(C(C)C)C2)ccc1Nc1ncc(C(F)(F)F)c(NCc2ccc(C)cc2N(C)S(C)(=O)=O)n1 [Example 10]
0.24	1	CNCc1ccc(Nc2ncc(C(F)(F)F)c(NCc3ccc(C)cc3N(C)S(C)(=O)=O)n2)c(OC)c1 [Example 25]
0.16	2	CCN(CC)CCNC(=O)c1ccc(Nc2ncc(C(F)(F)F)c(NCc3ccc(C)cc3N(C)S(C)(=O)=O)n2)c(OC)c1 [Example 12]
0.7	1	CCNCc1ccc(Nc2ncc(C(F)(F)F)c(NCc3ccc(C)cc3N(C)S(C)(=O)=O)n2)c(OC)c1 [Example 66]
3	3	COc1cc(C(=O)N[C@@H]2CCCN(C3COC3)C2)ccc1Nc1ncc(C(F)(F)F)c(NCc2ccc(C)cc2N(C)S(C)(=O)=O)n1 [Example 116]
